From ChEMBL document CHEMBL1124131, “Derivatives of 2-methylenepropane-1,3-diol as new antagonists of platelet activating factor” (J Med Chem, 1988) come the findings set out here.

The species entered for one assay is Oryctolagus cuniculus. Description: Concentration required to reduce 50% of maximum platelet aggregation caused by PAF in platelet rich plasma from rabbit in vitro. The format is functional.
In assay [1] the test system is Rattus norvegicus. The experiment in a line: Tested in vivo for dose required to inhibit PAF-induced hypotension in rat.
The subject of a further assay is Cavia porcellus. Description: Tested in vivo for dose required to inhibit PAF-induced bronchoconstriction in guinea pig. The format is functional.
In assay [2] the test system is Rattus norvegicus. Description: Tested in vivo for dose required to inhibit PAF-induced hypotension in rat. This is another data set of the same source.

The term EC50 denotes the concentration that produces a half-maximal response. A higher EC50 goes with a need for much substance. The term ED50 denotes the dose at which the effect has come halfway, by size or by number of responders. Low readings indicate greater potency, high ones weaker potency.

With `C=C(COC(=O)CCCCC[n+]1ccccc1)COC(=O)NCCCCCCCCCCCCCCCCCC.[Br-]`, the EC50 in the assay listed under Oryctolagus cuniculus is 500 nM. The ED50 amounted to 0.5 mg/kg with Rattus norvegicus [1] and 0.2 mg/kg with Cavia porcellus.
Compound `C=C(COC(=O)CCCCCC[n+]1ccsc1)COC(=O)NCCCCCCCCCCCCCCCCCC.[Br-]` registered an EC50 in the assay filed under Oryctolagus cuniculus of 250 nM. Also, the results for the ED50 in the assay with Cavia porcellus and with Rattus norvegicus [2] were 0.1 mg/kg and 0.5 mg/kg, respectively.
